{"source": "patent US20230019236A1", "about": "“PROTEIN TYROSINE PHOSPHATASE INHIBITORS AND METHODS OF USE THEREOF” (Calico Life Sciences LLC, priority 2019, published 2023)"}
{"biological_target": "T1, His tagged full-length PTP1B protein (Homo sapiens, UniProt P18031)", "T1 construct": "made in house", "T1 sequence (P18031 with tags, fused parts or gaps)": "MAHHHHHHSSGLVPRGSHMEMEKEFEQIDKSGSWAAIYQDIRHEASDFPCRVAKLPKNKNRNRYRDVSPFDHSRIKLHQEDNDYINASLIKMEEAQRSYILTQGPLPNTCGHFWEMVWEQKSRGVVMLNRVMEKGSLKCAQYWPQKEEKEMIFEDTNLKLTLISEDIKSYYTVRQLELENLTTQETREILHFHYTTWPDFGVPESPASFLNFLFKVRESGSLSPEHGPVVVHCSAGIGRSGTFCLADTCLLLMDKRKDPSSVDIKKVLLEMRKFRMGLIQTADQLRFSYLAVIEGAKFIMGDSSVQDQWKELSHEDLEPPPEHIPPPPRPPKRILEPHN", "assay": "Mobility Shift Assay (MSA) used to determine potency of PTP1B inhibitors", "assay_type": "biochemical", "settings": "Table 2", "procedure": "The enzymatic assay used to determine activity is a mobility shift assay using a LabChip EZ Reader by Caliper Life Sciences. The enzymatic reaction was carried out in assay buffer (50 mM HEPES pH 7.5, 1 mM EGTA, 10 mM EDTA, 0.01% Tween® 20, and 2 mM DTT). […] The enzyme (at 0.5 nM) was incubated with compound for 10 minutes at room temperature. […] The % inhibition was then used to calculate the IC50 values.", "units": {"IC50": "nM"}}
{"smiles": "COCCNc1ccc2cc(O)c(N3CC(=O)NS3(=O)=O)c(F)c2c1", "note": "[Compound 179, 5-{1-fluoro-3-hydroxy-7-[(2-methoxyethyl)amino]naphthalen-2-yl}-1λ^6,2,5-thiadiazolidine-1,1,3-trione]", "IC50": "> 100"}
{"smiles": "CS(=O)(=O)N1CC[C@@H](Nc2ccc3cc(O)c(N4CC(=O)NS4(=O)=O)c(F)c3c2)C1", "note": "[Compound 304, 5-(1-fluoro-3-hydroxy-7-{[(3R)-1-(methanesulfonyl)pyrrolidin-3-yl]amino}naphthalen-2-yl)-1λ^6,2,5-thiadiazolidine-1,1,3-trione]", "IC50": "10 to 100"}
{"smiles": "O=C1CN(c2c(O)cc3ccc(C(=O)NCC4CC4)cc3c2F)S(=O)(=O)N1", "note": "[Compound 136, N-(cyclopropylmethyl)-8-fluoro-6-hydroxy-7-(1,1,4-trioxo-1λ^6,2,5-thiadiazolidin-2-yl)naphthalene-2-carboxamide]", "IC50": "10 to 100"}
{"smiles": "CC(C)NCCOc1ccc2cc(O)c(N3CC(=O)NS3(=O)=O)c(F)c2c1", "note": "[Compound 145, 5-(1-fluoro-3-hydroxy-7-{2-[(propan-2-yl)amino]ethoxy}naphthalen-2-yl)-1λ^6,2,5-thiadiazolidine-1,1,3-trione]", "IC50": "10 to 100"}
{"smiles": "O=C1CN(c2c(O)cc3ccc(NCC4CC4)cc3c2F)S(=O)(=O)N1", "note": "[Compound 202, 5-{7-[(cyclopropylmethyl)amino]-1-fluoro-3-hydroxynaphthalen-2-yl}-1λ^6,2,5-thiadiazolidine-1,1,3-trione]", "IC50": "10 to 100"}
{"smiles": "CCP(=O)(CC)CCCOc1ccc2cc(O)c(N3CC(=O)NS3(=O)=O)c(F)c2c1", "note": "[Compound 146, 5-{7-[3-(diethylphosphoryl)propoxy]-1-fluoro-3-hydroxynaphthalen-2-yl}-1λ^6,2,5-thiadiazolidine-1,1,3-trione]", "IC50": "1 to 10"}
{"smiles": "CS(=O)(=O)N1CC(Nc2ccc3cc(O)c(N4CC(=O)NS4(=O)=O)c(F)c3c2)C1", "note": "[Compound 128, 5-(1-fluoro-3-hydroxy-7-{[1-(methanesulfonyl)azetidin-3-yl]amino}naphthalen-2-yl)-1λ^6,2,5-thiadiazolidine-1,1,3-trione]", "IC50": "1 to 10"}
{"smiles": "Nc1ccc(CS(=O)(=O)N2CC=C(c3ccc4cc(O)c(N5CC(=O)NS5(=O)=O)c(F)c4c3)C2)cc1", "note": "[Compound 184, 5-(7-{1-[(4-aminophenyl)methanesulfonyl]-2,5-dihydro-1H-pyrrol-3-yl}-1-fluoro-3-hydroxynaphthalen-2-yl)-1λ^6,2,5-thiadiazolidine-1,1,3-trione]", "IC50": "1 to 10"}
{"smiles": "O=C1CN(c2c(O)cc3ccc(-c4cnn(CC5CC5)c4)cc3c2F)S(=O)(=O)N1", "note": "[Compound 132, 5-{7-[1-(cyclopropylmethyl)-1H-pyrazol-4-yl]-1-fluoro-3-hydroxynaphthalen-2-yl}-1λ^6,2,5-thiadiazolidine-1,1,3-trione]", "IC50": "< 1"}
{"smiles": "Nc1cccc(CS(=O)(=O)N2CC=C(c3ccc4cc(O)c(N5CC(=O)NS5(=O)=O)c(F)c4c3)C2)c1", "note": "[Compound 194, 5-(7-{1-[(3-aminophenyl)methanesulfonyl]-2,5-dihydro-1H-pyrrol-3-yl}-1-fluoro-3-hydroxynaphthalen-2-yl)-1λ^6,2,5-thiadiazolidine-1,1,3-trione]", "IC50": "1 to 10"}
{"smiles": "CC(C)OCCNc1ccc2cc(O)c(N3CC(=O)NS3(=O)=O)c(F)c2c1", "note": "[Compound 172, 5-[1-fluoro-3-hydroxy-7-({2-[(propan-2-yl)oxy]ethyl}amino)naphthalen-2-yl]-1λ^6,2,5-thiadiazolidine-1,1,3-trione]", "IC50": "> 100"}
{"smiles": "COc1ccc2c(Cl)c(O)c(N3CC(=O)NS3(=O)=O)c(F)c2c1", "note": "[Compound 238, 5-(4-chloro-1-fluoro-3-hydroxy-7-methoxynaphthalen-2-yl)-1λ^6,2,5-thiadiazolidine-1,1,3-trione]", "IC50": "> 100"}
{"smiles": "O=C1CN(c2c(O)cc3ccc(NCCCC(F)(F)F)cc3c2F)S(=O)(=O)N1", "note": "[Compound 166, 5-{1-fluoro-3-hydroxy-7-[(4,4,4-trifluorobutyl)amino]naphthalen-2-yl}-1λ^6,2,5-thiadiazolidine-1,1,3-trione]", "IC50": "> 100"}
{"smiles": "O=C1CN(c2c(O)cc3ccc(C4CN(C(=O)C5CC5)C4)cc3c2F)S(=O)(=O)N1", "note": "[Compound 207, 5-{7-[1-(cyclopropanecarbonyl)azetidin-3-yl]-1-fluoro-3-hydroxynaphthalen-2-yl}-1λ^6,2,5-thiadiazolidine-1,1,3-trione]", "IC50": "1 to 10"}
{"smiles": "O=C(O)CNc1ccc2cc(O)c(N3CC(=O)NS3(=O)=O)c(F)c2c1", "note": "[Compound 280, {[8-fluoro-6-hydroxy-7-(1,1,4-trioxo-1λ^6,2,5-thiadiazolidin-2-yl)naphthalen-2-yl]amino}acetic acid]", "IC50": "> 100"}
{"smiles": "O=C(CNc1ccc2cc(O)c(N3CC(=O)NS3(=O)=O)c(F)c2c1)NCCC1CC1", "note": "[Compound 268, N-(2-cyclopropylethyl)-2-{[8-fluoro-6-hydroxy-7-(1,1,4-trioxo-1λ^6,2,5-thiadiazolidin-2-yl)naphthalen-2-yl]amino}acetamide]", "IC50": "10 to 100"}
{"smiles": "COCCS(=O)(=O)N1CC=C(c2ccc3cc(O)c(N4CC(=O)NS4(=O)=O)c(F)c3c2)C1", "note": "[Compound 286, 5-{1-fluoro-3-hydroxy-7-[1-(2-methoxyethanesulfonyl)-2,5-dihydro-1H-pyrrol-3-yl]naphthalen-2-yl}-1λ^6,2,5-thiadiazolidine-1,1,3-trione]", "IC50": "< 1"}
{"smiles": "O=C1CN(c2c(O)c(Br)c3ccc(-c4ccn(S(=O)(=O)C5CC5)c4)cc3c2F)S(=O)(=O)N1", "note": "[Compound 231B, 5-{4-bromo-7-[1-(cyclopropanesulfonyl)-1H-pyrrol-3-yl]-1-fluoro-3-hydroxynaphthalen-2-yl}-1λ^6,2,5-thiadiazolidine-1,1,3-trione]", "IC50": "1 to 10"}
{"smiles": "CCC(=O)CCOc1ccc2cc(O)c(N3CC(=O)NS3(=O)=O)c(F)c2c1", "note": "[Compound 155, 5-{1-fluoro-3-hydroxy-7-[(3-oxopentyl)oxy]naphthalen-2-yl}-1λ^6,2,5-thiadiazolidine-1,1,3-trione]", "IC50": "1 to 10"}
{"smiles": "N#Cc1c[nH]c(-c2ccc3cc(O)c(N4CC(=O)NS4(=O)=O)c(F)c3c2)n1", "note": "[Compound 321, 2-[8-fluoro-6-hydroxy-7-(1,1,4-trioxo-1λ^6,2,5-thiadiazolidin-2-yl)naphthalen-2-yl]-1H-imidazole-4-carbonitrile]", "IC50": "1 to 10"}
{"smiles": "O=C1CN(c2c(O)cc3ccc(OC4CC4)cc3c2F)S(=O)(=O)N1", "note": "[Compound 223, 5-[7-(cyclopropyloxy)-1-fluoro-3-hydroxynaphthalen-2-yl]-1λ^6,2,5-thiadiazolidine-1,1,3-trione]", "IC50": "1 to 10"}
{"smiles": "O=C1CN(c2c(O)cc3ccc(OCCCC(F)(F)F)cc3c2F)S(=O)(=O)N1", "note": "[Compound 158, 5-[1-fluoro-3-hydroxy-7-(4,4,4-trifluorobutoxy)naphthalen-2-yl]-1λ^6,2,5-thiadiazolidine-1,1,3-trione]", "IC50": "1 to 10"}
{"smiles": "O=C1CN(c2c(O)cc3ccc(OCC(F)F)cc3c2F)S(=O)(=O)N1", "note": "[Compound 302, 5-[7-(2,2-difluoroethoxy)-1-fluoro-3-hydroxynaphthalen-2-yl]-1λ^6,2,5-thiadiazolidine-1,1,3-trione]", "IC50": "10 to 100"}
{"smiles": "O=C1CN(c2c(O)cc3ccc(OC4COC4)cc3c2F)S(=O)(=O)N1", "note": "[Compound 274, 5-{1-fluoro-3-hydroxy-7-[(oxetan-3-yl)oxy]naphthalen-2-yl}-1λ^6,2,5-thiadiazolidine-1,1,3-trione]", "IC50": "1 to 10"}
{"smiles": "CC1(CCOc2ccc3cc(O)c(N4CC(=O)NS4(=O)=O)c(F)c3c2)CC1", "note": "[Compound 193, 5-{1-fluoro-3-hydroxy-7-[2-(1-methylcyclopropyl)ethoxy]naphthalen-2-yl}-1λ^6,2,5-thiadiazolidine-1,1,3-trione]", "IC50": "10 to 100"}
{"smiles": "N#CC1(CCOc2ccc3cc(O)c(N4CC(=O)NS4(=O)=O)c(F)c3c2)CC1", "note": "[Compound 159, 1-(2-{[8-fluoro-6-hydroxy-7-(1,1,4-trioxo-1λ^6,2,5-thiadiazolidin-2-yl)naphthalen-2-yl]oxy}ethyl)cyclopropane-1-carbonitrile]", "IC50": "1 to 10"}
{"smiles": "O=C1CN(c2c(O)cc3ccc(NCCC(F)(F)F)cc3c2F)S(=O)(=O)N1", "note": "[Compound 169, 5-{1-fluoro-3-hydroxy-7-[(3,3,3-trifluoropropyl)amino]naphthalen-2-yl}-1λ^6,2,5-thiadiazolidine-1,1,3-trione]", "IC50": "10 to 100"}
{"smiles": "O=C1CN(c2c(O)cc3ccc(OC4CN(S(=O)(=O)C5CC5)C4)cc3c2F)S(=O)(=O)N1", "note": "[Compound 178, 5-(7-{[1-(cyclopropanesulfonyl)azetidin-3-yl]oxy}-1-fluoro-3-hydroxynaphthalen-2-yl)-1λ^6,2,5-thiadiazolidine-1,1,3-trione]", "IC50": "10 to 100"}
{"smiles": "O=C1CN(c2c(O)cc3ccc(CO)cc3c2F)S(=O)(=O)N1", "note": "[Compound 185, 5-[1-fluoro-3-hydroxy-7-(hydroxymethyl)naphthalen-2-yl]-1λ^6,2,5-thiadiazolidine-1,1,3-trione]", "IC50": "10 to 100"}
{"smiles": "O=C1CN(c2c(O)cc3ccc(OCCOC4CCC4)cc3c2F)S(=O)(=O)N1", "note": "[Compound 214, 5-{7-[2-(cyclobutyloxy)ethoxy]-1-fluoro-3-hydroxynaphthalen-2-yl}-1λ^6,2,5-thiadiazolidine-1,1,3-trione]", "IC50": "1 to 10"}
{"smiles": "N#CCCCOc1ccc2cc(O)c(N3CC(=O)NS3(=O)=O)c(F)c2c1", "note": "[Compound 129, 4-{[8-fluoro-6-hydroxy-7-(1,1,4-trioxo-1λ^6,2,5-thiadiazolidin-2-yl)naphthalen-2-yl]oxy}butanenitrile]", "IC50": "< 1"}
